How the values were obtained:
Assay type in all cases: cell-based
Aβtotal [1] = experiment: Screening for γ-secretase-modulating activity, Method 1: Aβtotal sandwich ELISA in supernatant of SKNBE2 cells carrying APP 695 wild type (Tables 12a, 12b)
How it was run: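 SKNBE2 cells expressing wild-type APP 695 were plated a day ahead, then exposed to compound in Ultraculture with 1% glutamine for 18 hours. Supernatant Aβtotal captured on 6E10 overnight at 4° C, detected with biotinylated 4G8 and streptavidin-peroxidase with a fluorogenic substrate. IC50 from 4-parameter dose-response fits.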

Aβ42 [2] = experiment: Screening for γ-secretase-modulating activity, Method 2: Aβ42 Alphalisa in supernatant of SKNBE2 cells carrying APP 695 wild type (Table 12c); settings: Method 2, Table 12c, incubated overnight
How it was run: (§1)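 SKNBE2 cells expressing wild-type APP695, 10^4 cells/well, exposed to compound overnight at 37 °C; secreted Aβ42 and Aβtotal in supernatant measured by AlphaLISA sandwich immunoassays (Aβ42: C-terminal/N-terminal antibodies; Aβtotal: N-terminal/4G8). IC50 from 4-parameter fit of % untreated control.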

Aβ42 [3] = experiment: Screening for γ-secretase-modulating activity, Method 1: Aβ42 sandwich ELISA in supernatant of SKNBE2 cells carrying APP 695 wild type (Tables 12a, 12b)
How it was run: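 SKNBE2 cells expressing wild-type APP695 were treated with compound for 18 h, and secreted Aβ42 in the medium was quantified by sandwich ELISA (C-terminal-selective capture, biotinylated 3D6 detection, TMB read at 450 nm). IC50 came from 4-parameter fits of % inhibition or % of untreated control; toxicity was checked by WST-1.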

Aβtotal [4] = experiment: Screening for γ-secretase-modulating activity, Method 2: Aβtotal Alphalisa in supernatant of SKNBE2 cells carrying APP 695 wild type (Table 12c); settings: Method 2, Table 12c, incubated overnight
How it was run: as §1

[5] = Homo sapiens, Method 1, Table 12a, SKNBE2 cells carrying APP 695 wild type, compounds 18 hours, ELISA, curve top and bottom fixed to 100 and 0, hill slope 1
[6] = Homo sapiens, Table 12b, Method 1, SKNBE2 cells carrying APP 695 wild type, cell supernatant ELISA, averaged IC50 values
[7] = Homo sapiens, Table 12b, Method 1, SKNBE2 cells carrying APP 695 wild type, cell supernatant ELISA, averaged IC50 values, percentage of control vs log concentration

| IC50 (Aβtotal [1]; [5]) | IC50 (Aβtotal [1]; [6]) | IC50 (Aβ42 [2]; Homo sapiens) | IC50 (Aβ42 [3]; [5]) | IC50 (Aβ42 [3]; [7]) | IC50 (Aβtotal [4]; Homo sapiens) | IC50 (Aβtotal [1]; Table 12b, Method 1, SKNBE2 cells carrying APP 695 wild type, cell supernatant ELISA, averaged IC50 values) | IC50 (Aβ42 [2]) | IC50 (Aβ42 [3]; Table 12b, Method 1, SKNBE2 cells carrying APP 695 wild type, cell supernatant ELISA, averaged IC50 values, percentage of control vs log concentration) | IC50 (Aβtotal [4]) | Compound |
| --- | --- | --- | --- | --- | --- | --- | --- | --- | --- | --- |
| > 3000 nM | > 3020 nM |  | 65 nM | 55 nM |  |  |  |  |  | COc1cc(Nc2cccn3c(Cl)c(-c4ccc(F)cc4)nc23)ccc1-n1cnc(C)c1 [Compound 2] |
| > 1000 nM | > 3020 nM |  | 14 nM | 12 nM |  |  |  |  |  | COc1cc(Nc2cccn3c(C)c(-c4ccccc4)nc23)ccc1-n1cnc(C)c1 [Compound 5] |
| > 3000 nM | > 3020 nM | 38 nM | 12 nM | 11 nM | 5500 nM |  |  |  |  | COc1cc(Nc2cccn3c(C)c(-c4ccccc4Cl)nc23)ccc1-n1cnc(C)c1 [Compound 15] |
| > 3000 nM | > 3020 nM |  | 25 nM | 25 nM |  |  |  |  |  | COc1cc(Nc2cccn3c(C)c(-c4c(F)cccc4F)nc23)ccc1-n1cnc(C)c1 [Compound 27] |
| > 1000 nM | > 10000 nM | 13 nM | 10 nM | 8 nM | 7080 nM |  |  |  |  | COc1cc(Nc2cccn3c(C)c(-c4ccccc4C(F)(F)F)nc23)ccc1-n1cnc(C)c1 [Compound 29] |
|  |  |  |  |  |  | > 3020 nM | 5 nM | 9 nM | 5890 nM | COc1nc(Nc2cccn3c(C)c(-c4ccccc4C(F)(F)F)nc23)ccc1-n1cnc(C)c1 [Compound 138] |

Continued, molecule first:

| Compound | IC50 (Aβtotal [1]; [5]) | IC50 (Aβtotal [1]; [6]) | IC50 (Aβ42 [2]; Homo sapiens) | IC50 (Aβ42 [3]; [5]) | IC50 (Aβ42 [3]; [7]) | IC50 (Aβtotal [4]; Homo sapiens) | IC50 (Aβtotal [1]; Table 12b, Method 1, SKNBE2 cells carrying APP 695 wild type, cell supernatant ELISA, averaged IC50 values) | IC50 (Aβ42 [2]) | IC50 (Aβ42 [3]; Table 12b, Method 1, SKNBE2 cells carrying APP 695 wild type, cell supernatant ELISA, averaged IC50 values, percentage of control vs log concentration) | IC50 (Aβtotal [4]) |
| --- | --- | --- | --- | --- | --- | --- | --- | --- | --- | --- |
| COc1cc(Nc2cccn3cc(-c4ccc(F)cc4)nc23)ccc1-n1cnc(C)c1 [Compound 1] | > 5000 nM | > 5010 nM | 155 nM | 101 nM | 98 nM | 7410 nM |  |  |  |  |
| COc1cc(Nc2cccn3cc(C4CCOCC4)nc23)ccc1-n1cnc(C)c1 [Compound 4] | > 3000 nM | > 3020 nM | 166 nM | 53 nM | 85 nM | > 10000 nM |  |  |  |  |
| COc1cccc(-c2cn3cccc(Nc4ccc(-n5cnc(C)c5)c(OC)c4)c3n2)c1 [Compound 33] | > 3000 nM | > 3020 nM | 71 nM | 31 nM | 27 nM | 5750 nM |  |  |  |  |
| COc1cc(Nc2cccn3cc(C)nc23)ccc1-n1cnc(C)c1 [Compound 50] | > 3000 nM | > 5010 nM | 309 nM | 253 nM | 251 nM | > 10000 nM |  |  |  |  |
| Cc1ncn(-c2ccc(Nc3cccn4cc(-c5ccccc5C)nc34)cc2)n1 [Compound 71] | > 3000 nM |  | 407 nM | 288 nM |  | > 3020 nM |  |  |  |  |

Source: patent publication US8546440B2, “Substituted bicyclic imidazole derivatives as gamma secretase modulators” (Janssen Pharmaceuticals, Inc., priority 2008, dated 2013)
